Data set [1] relates to Enterovirus 68. Nature of the data set: In vitro CPE assay in mammalian cell culture, EV68. Type of data set: cell-based. To be noted: Enterovirus D, viral cytopathic effect in mammalian cell culture, read-out: EV68 inhibition capacity (IC50).
Data set [2] relates to coxsackie B2 virus. The experiment in a line: In vitro CPE assay in mammalian cell culture, B2. Type of data set: cell-based. Particulars: viral cytopathic effect in mammalian cell culture, read-out: B2 inhibition capacity (IC50). (Protection from cytopathic effect is a common read-out in antiviral testing.)
Data set [3] relates to polio virus Sabin 1. The experiment in a line: organism not typed. Type of data set: cell-based. Particulars: read-out: Polio 1 inhibition capacity (IC50).
Data set [4] can be described thus: in vitro. Format: in vitro ADME. Particulars: plasma, pH 7.4. The protocol:
Plasma protein binding study was performed by using a Rapid Equilibrium Dialysis (RED) device containing dialysis membrane with a molecular weight cut-off of 8,000 Daltons. Each dialysis insert contains two chambers. The red chamber was for the plasma while the white chamber was for the buffer. The human and rat plasma (pH adjusted to 7.40) samples of test items and reference items (Warfarin and Propranolol) were prepared at a required test concentration of 5 μM using 5 mM DMSO stocks (final DMSO concentration was 0.1%). 300 μL of plasma sample was added into the sample chamber. 500 μL of buffer was added into the buffer chamber. After sealing the RED device with an adhesive film, incubation was done at 37° C. with shaking at 300 rpm for 4 h. Following incubation, an aliquot of 50 μL was removed from each well (plasma and buffer side) and diluted with equal volume of opposite matrix to nullify the matrix effect. The specimens were subjected to sample extraction in presence of internal standard by liquid-liquid extraction/protein precipitation method. After extraction, the samples were transferred into labeled auto sampler vials and submitted to LC-MS/MS analysis.

For data set [5], the system named is Enterovirus 71. The experiment in a line: In vitro CPE assay in mammalian cell culture, EV71. Type of data set: cell-based. To be noted: Enterovirus A, viral cytopathic effect in mammalian cell culture, read-out: EV71 inhibition capacity (IC50).
The subject of data set [6] is coxsackie B3 virus. Nature of the data set: In vitro CPE assay in mammalian cell culture, B3. To be noted: Enterovirus B, viral cytopathic effect in mammalian cell culture, read-out: B3 inhibition capacity (IC50). Format: cell-based.
Data set [7] is described as follows: Metabolic stability in human liver microsomes. Particulars: for Remaining after 1 h, HLM: human liver microsomes, 5 μM test item, 0.125 mg/mL microsomal protein; for half-life at 5 μM: human, microsomes. Type of data set: in vitro ADME. The protocol: (§1) Metabolic stability in human and rat liver microsomesMetabolic stability was studied using human (HLM) or rat (RLM) liver microsomes. The final composition of the assay included 5 μM of test item and reference item (Diclofenac or Imipramine) prepared from DMSO stock, so that the final concentration of DMSO was 0.1%, 0.125 mg/mL microsomal protein and cofactors (5.0 mM G-6-P, 0.06 U/mL G-6-PDH, 2.0 mM MgCl2, 1.0 mM NADP^+). Test and reference items were incubated with human or rat liver microsomes with or without cofactors. The reaction mixture (100 μL) was removed at specified time periods and the reaction was stopped by addition of stop solution. The samples were extracted in presence of internal standard and were analyzed using LC-MS/MS. The percent of the test/reference item remaining after a specified incubation period was calculated with respect to the peak area ratio at time 0 min.

For data set [8], the system named is Enterovirus 6. The experiment in a line: In vitro CPE assay in mammalian cell culture, EV6. Type of data set: cell-based. Particulars: viral cytopathic effect in mammalian cell culture, read-out: EV6 inhibition capacity (IC50).
For data set [9], the system named is coxsackie B5 virus. Nature of the data set: In vitro CPE assay in mammalian cell culture, B5. To be noted: viral cytopathic effect in mammalian cell culture, read-out: B5 inhibition capacity (IC50). Type of data set: cell-based.
Data set [10] is described as follows: Metabolic stability in rat liver microsomes. Type of data set: in vitro ADME. Particulars: 5 μM test item, 0.125 mg/mL microsomal protein. How it is done:
as §1
A general note: Liver microsomes are a subcellular fraction often used to study metabolism.

The nature of data set [11]: in vivo. Details: species or system Sprague Dawley rats. To be noted: male, Sprague Dawley, rat, po, 50 mg/kg. The protocol:
Overnight fasted animals were administered with the test compounds in recommended vehicle 0.4% (v/v) Tween 80+2% (v/v) Glycerol and 15% w/v HPBCD by oral route with a dose of 50 mg/kg body weight at dose volume of 10 mL/kg bw. Under mild isoflurane anesthesia, blood samples were collected into pre-labeled tubes containing anticoagulant (K2EDTA—2 mg/mL blood) during the next 24 hours post dose. Collected blood samples were centrifuged at 4000 rpm, 4° C. for 10 minutes and plasma was separated and stored at −80° C. until analysis.

The subject of data set [12] is coxsackie B1 virus. Nature of the data set: In vitro CPE assay in mammalian cell culture, B1. Format: cell-based. To be noted: viral cytopathic effect in mammalian cell culture, read-out: B1 inhibition capacity (IC50).
The test system of data set [13] is Enterovirus 30. Nature of the data set: In vitro CPE assay in mammalian cell culture, EV30. Type of data set: cell-based. To be noted: viral cytopathic effect in mammalian cell culture, read-out: EV30 inhibition capacity (IC50).
Data set [14] relates to coxsackie B4 virus. Nature of the data set: In vitro CPE assay in mammalian cell culture, B4. Format: cell-based. Particulars: Enterovirus B, viral cytopathic effect in mammalian cell culture, read-out: B4 inhibition capacity (IC50).
The target of data set [15] is PI3Kβ (Homo sapiens, UniProt P42338). Nature of the data set: PI3 kinase inhibition HTRF assay. Type of data set: biochemical. Particulars: * no inhibition at the highest tested concentration 1 μM. How it is done:
(§2) Phosphatidyl inositol kinase inhibition assay Inhibition of PI4 kinases was studied using the ADP-Glo™ Kinase Assay which is a luminescent kinase assay that measures ADP formed from a kinase reaction, wherein ADP is converted into ATP, which is converted into light by Ultra-Glo™ Luciferase. The assay is performed in two steps; first, after the kinase reaction, an equal volume of ADP-Glo™ Reagent is added to terminate the kinase reaction and deplete the remaining ATP. In the second step, the Kinase Detection Reagent is added, which simultaneously converts ADP to ATP and allows the newly synthesized ATP to be measured using a coupled luciferase/luciferin reaction. The luminescent signal produced is proportional to the activity of the kinase. Inhibition of PI3 kinases was studied using the HTRF (homogeneous time-resolved fluorescence) assay, which is a universal method for identifying and characterizing the phosphotransferase activity induced by any ATP/ADP dependent target. The formation of ADP was detected by a specific monoclonal antibody labeled with Eu^3+ cryptate, and directly correlated with the amount of phosphorylated substrate.
A general note: Time-resolved FRET reads energy transfer from a long-lived donor to a nearby acceptor.

Data set [16] has as its target PI3Kα (Homo sapiens, UniProt P42336). Nature of the data set: PI3 kinase inhibition HTRF assay. Format: biochemical. Particulars: * no inhibition at the highest tested concentration 1 μM. How it is done:
as §2

For data set [17], the target named is PI4KIIIα (Homo sapiens, UniProt P42356). The experiment in a line: Phosphatidyl inositol kinase inhibition assay (ADP-Glo Kinase Assay). Type of data set: biochemical. Particulars: * no inhibition at the highest tested concentration 1 μM. How it is done:
as §2

Data set [18] deals with PI4KIIIβ (Homo sapiens, UniProt Q9UBF8). The data set is described as above. Type of data set: biochemical. How it is done: as §2
Data set [19] has as its system EV71. Nature of the data set: Time of addition assay. Particulars: Enterovirus A, 100 nM, EV71 at high titer. Format: cell-based, Enterovirus 71. The protocol:
The titer of the virus was determined by the standard method of tissue culture infective dose (TCID50) on cells. Briefly, cells were infected with 50 μl of virus suspension, and diluted 10-fold in media. The plates were incubated in 37° C. with 5% CO2 for 3-7 days and cells were inspected daily for CPE. After determining CPE, plates were stained with Gram's Crystal Violet solution and optical density was read at 540 nm. […] Substances at a final concentration of 0.1 nM-1 μM and the virus were added to the cells and incubated for 3-7 days depending on the virus and cell line used. As controls, uninfected cells and cells infected with virus (no substance) were included on each plate. The cells were stained with crystal violet after determining the CPE on infected controls and the optical density was read at 540 nm. The inhibition capacity was calculated as a % by comparison with non-infected and infected controls. Time of addition assay The assay was performed like the “in vitro assay in mammalian cell culture” described above with the exception that substance was added one hour pre inoculation (−1 h), at inoculation (0 h), and 2 hours (+2 h), 6 hours (+6 h) or 24 hours (+24 h) past inoculation. The virus EV71 was used at high titer for the test.

The text below walks through data of patent US11001587B2, “Substituted indazoles as phosphatidylinositol kinase inhibitors” (CUROVIR AB, priority 2017, dated 2021).

Where two headings read alike, the source gives them in different places.

PI4KIIIβ, sequence (Q9UBF8 whole entry): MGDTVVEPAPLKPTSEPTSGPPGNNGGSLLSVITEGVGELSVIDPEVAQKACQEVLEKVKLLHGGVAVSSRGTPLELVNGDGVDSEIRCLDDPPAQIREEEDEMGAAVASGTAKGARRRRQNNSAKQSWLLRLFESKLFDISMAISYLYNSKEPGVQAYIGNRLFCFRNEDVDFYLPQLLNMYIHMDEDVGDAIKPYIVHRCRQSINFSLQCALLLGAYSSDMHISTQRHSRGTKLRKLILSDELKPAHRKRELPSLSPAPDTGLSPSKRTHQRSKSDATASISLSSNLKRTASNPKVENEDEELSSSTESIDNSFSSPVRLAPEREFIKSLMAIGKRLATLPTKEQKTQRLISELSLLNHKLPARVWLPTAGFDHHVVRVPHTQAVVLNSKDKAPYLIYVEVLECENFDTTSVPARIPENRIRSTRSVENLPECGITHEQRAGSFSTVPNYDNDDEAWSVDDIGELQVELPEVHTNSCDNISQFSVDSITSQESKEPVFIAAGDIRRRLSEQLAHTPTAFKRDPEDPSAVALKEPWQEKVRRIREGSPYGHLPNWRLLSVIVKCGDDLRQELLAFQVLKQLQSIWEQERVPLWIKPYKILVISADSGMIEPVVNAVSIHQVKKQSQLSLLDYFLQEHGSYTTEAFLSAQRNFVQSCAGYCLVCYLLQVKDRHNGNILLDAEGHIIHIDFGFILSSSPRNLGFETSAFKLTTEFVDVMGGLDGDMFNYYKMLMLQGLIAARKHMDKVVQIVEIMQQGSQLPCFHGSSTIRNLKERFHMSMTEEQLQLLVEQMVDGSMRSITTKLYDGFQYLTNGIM
PI3Kβ, sequence (P42338 whole entry, species assumed): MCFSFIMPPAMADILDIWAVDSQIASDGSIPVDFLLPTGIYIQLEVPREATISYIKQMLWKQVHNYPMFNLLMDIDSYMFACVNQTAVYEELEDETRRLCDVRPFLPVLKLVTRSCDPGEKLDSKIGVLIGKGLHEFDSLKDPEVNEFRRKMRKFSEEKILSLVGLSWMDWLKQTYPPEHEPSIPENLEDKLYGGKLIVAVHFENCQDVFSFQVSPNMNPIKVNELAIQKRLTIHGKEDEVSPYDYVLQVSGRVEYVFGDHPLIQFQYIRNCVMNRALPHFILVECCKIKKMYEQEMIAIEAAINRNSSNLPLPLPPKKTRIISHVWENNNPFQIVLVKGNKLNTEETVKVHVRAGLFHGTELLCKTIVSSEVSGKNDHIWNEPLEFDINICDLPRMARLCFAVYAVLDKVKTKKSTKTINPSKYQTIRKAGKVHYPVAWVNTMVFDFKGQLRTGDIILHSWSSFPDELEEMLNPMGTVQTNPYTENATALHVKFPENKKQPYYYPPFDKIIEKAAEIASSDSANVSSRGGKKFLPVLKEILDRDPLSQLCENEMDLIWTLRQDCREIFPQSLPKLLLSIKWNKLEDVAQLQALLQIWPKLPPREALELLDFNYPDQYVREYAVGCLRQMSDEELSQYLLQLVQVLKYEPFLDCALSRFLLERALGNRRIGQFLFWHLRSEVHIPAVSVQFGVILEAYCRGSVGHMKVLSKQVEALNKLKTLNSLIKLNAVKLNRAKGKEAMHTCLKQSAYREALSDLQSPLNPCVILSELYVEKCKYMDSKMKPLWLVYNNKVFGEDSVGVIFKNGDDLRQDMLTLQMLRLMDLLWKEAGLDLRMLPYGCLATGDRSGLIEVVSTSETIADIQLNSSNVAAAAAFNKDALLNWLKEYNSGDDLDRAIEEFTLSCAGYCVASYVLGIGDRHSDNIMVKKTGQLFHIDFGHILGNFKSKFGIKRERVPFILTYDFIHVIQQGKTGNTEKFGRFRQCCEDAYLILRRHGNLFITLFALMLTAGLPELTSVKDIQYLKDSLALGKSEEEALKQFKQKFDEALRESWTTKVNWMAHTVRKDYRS
PI3Kβ, sequence (P27986 whole entry partner, species assumed): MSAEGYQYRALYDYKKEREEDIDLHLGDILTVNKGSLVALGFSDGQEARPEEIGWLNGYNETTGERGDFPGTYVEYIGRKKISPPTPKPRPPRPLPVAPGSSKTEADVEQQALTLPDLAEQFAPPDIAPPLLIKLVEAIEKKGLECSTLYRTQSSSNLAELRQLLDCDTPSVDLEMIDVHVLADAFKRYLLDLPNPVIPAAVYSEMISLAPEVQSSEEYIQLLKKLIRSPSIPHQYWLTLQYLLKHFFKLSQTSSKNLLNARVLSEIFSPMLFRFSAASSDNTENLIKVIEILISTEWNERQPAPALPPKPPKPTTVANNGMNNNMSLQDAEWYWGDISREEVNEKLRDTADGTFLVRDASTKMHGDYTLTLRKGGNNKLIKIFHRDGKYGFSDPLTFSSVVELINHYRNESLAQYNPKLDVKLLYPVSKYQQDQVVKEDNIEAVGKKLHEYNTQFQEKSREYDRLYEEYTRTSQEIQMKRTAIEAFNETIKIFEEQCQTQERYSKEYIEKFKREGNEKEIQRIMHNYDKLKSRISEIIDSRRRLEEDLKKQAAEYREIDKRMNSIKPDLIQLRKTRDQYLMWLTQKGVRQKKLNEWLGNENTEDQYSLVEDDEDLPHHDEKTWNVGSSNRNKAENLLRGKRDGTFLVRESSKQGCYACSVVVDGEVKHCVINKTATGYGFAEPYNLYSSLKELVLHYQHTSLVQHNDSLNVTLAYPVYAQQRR
PI4KIIIα, sequence (P42356 whole entry): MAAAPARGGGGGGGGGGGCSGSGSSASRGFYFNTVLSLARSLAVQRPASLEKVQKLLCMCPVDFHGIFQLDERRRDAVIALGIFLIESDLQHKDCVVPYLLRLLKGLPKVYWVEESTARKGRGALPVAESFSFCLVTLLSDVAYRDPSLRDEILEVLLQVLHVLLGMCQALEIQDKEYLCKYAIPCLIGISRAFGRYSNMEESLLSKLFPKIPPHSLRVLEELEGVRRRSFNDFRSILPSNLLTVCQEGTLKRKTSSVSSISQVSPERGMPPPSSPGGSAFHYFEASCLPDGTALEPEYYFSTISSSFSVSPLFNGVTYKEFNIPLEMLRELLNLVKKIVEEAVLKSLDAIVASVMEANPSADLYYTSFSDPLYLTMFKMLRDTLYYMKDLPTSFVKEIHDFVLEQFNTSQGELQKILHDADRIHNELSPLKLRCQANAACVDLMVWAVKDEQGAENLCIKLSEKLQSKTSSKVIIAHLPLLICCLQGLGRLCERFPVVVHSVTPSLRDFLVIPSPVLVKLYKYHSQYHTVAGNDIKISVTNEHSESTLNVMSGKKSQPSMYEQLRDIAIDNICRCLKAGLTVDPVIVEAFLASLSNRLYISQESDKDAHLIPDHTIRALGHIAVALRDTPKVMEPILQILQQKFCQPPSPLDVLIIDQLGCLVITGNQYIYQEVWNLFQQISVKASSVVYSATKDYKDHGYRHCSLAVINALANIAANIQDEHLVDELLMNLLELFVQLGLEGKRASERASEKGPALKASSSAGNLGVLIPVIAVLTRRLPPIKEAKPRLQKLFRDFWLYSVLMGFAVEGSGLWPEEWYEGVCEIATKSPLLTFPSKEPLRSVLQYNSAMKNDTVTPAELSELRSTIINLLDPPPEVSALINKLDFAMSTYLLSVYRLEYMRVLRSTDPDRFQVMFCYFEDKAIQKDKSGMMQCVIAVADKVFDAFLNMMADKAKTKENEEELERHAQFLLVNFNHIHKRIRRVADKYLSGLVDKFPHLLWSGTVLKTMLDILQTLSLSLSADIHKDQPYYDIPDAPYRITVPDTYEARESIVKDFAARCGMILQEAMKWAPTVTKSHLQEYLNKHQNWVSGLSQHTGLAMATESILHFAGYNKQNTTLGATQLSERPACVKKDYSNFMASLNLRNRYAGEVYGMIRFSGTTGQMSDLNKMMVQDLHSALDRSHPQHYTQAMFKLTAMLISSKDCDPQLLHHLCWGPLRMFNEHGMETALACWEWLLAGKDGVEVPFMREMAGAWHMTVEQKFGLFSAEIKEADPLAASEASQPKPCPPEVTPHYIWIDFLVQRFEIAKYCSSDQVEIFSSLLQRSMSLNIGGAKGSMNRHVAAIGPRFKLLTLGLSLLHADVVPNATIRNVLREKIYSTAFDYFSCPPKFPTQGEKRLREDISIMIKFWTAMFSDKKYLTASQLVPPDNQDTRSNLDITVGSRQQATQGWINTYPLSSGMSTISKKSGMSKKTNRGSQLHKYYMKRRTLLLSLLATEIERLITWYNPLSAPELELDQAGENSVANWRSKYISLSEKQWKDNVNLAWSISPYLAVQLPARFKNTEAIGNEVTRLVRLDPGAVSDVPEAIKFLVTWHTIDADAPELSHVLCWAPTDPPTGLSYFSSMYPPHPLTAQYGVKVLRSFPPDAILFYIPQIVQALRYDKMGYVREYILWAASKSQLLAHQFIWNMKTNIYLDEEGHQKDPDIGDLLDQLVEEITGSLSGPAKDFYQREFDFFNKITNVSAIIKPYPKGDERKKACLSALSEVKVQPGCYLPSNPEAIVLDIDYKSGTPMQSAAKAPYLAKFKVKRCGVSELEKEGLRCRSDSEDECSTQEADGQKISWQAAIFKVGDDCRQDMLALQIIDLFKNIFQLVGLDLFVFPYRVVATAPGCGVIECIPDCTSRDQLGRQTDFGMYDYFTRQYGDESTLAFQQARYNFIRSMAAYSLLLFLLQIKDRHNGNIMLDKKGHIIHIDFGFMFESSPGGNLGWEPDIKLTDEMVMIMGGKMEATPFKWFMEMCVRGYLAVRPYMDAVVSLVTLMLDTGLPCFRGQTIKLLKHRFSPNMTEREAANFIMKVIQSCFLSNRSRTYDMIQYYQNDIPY

One may read the IC50 as the concentration that gives 50% inhibition. As a reminder, the fraction unbound is free concentration divided by total concentration. Low values mean extensive binding, high ones weak binding. One may read the half-life as the time needed for the level to fall by half in the phase considered. Low readings indicate rapid decline, high ones slow decline. For orientation: AUC(0-inf) means the area under the concentration-time curve extrapolated to infinity. Low values mean less exposure, high ones more exposure. In general, AUC(0-t) refers to the area under the concentration-time curve up to a stated or last time point. Low readings indicate low exposure, high ones high exposure. One may read the Cmax as the highest concentration seen after dosing. As a reminder, the MRT last is the average time that molecules of a dose stay in the body. The Tmax is the time at which the peak concentration occurs. In the case of `Cc1cc(NCc2ccncc2)c2nc(C)c(-c3ccc4c(c3)c(C)nn4C)n2n1` [Example 1, 3-(1,3-dimethyl-1H-indazol-5-yl)-2,6-dimethyl-N-(pyridin-4-ylmethyl)imidazo[1,2-b]pyridazin-8-amine], the IC50 was below 100 nM in [1]; below 10 nM in data set [2]; below 1 nM in [3]; below 10 nM in data set [5]; below 1 nM in data set [6]; below 10 nM in data set [8]. In addition, the half-inhibitory concentration (IC50) in data set [9] is below 0.1 nM; in data set [12], below 10 nM; in [13], below 0.1 nM. For the same compound, the fraction unbound at 4 h, 5 μM was 0.016 in data set [4] (human) and 0.03 in [4] (rat). Further, in data set [7], the “Remaining after 1 h, HLM” value is recorded as 90%. The half-life at 5 μM in data set [7] is above 2 h. In addition, in data set [10], the “Remaining after 1 h, RLM” value is 88%. Moreover, in [11], the AUC(0-inf) was determined as 31800 ± 8000 ng·h/mL. For the same compound, in data set [11], the area under the curve AUC(0-t) worked out at 22200 ± 2100 ng·h/mL. The AUCextrap in [11] was determined as 27.8 ± 14.8%. Moreover, in data set [11], the highest level (Cmax) was 3900 ± 400 ng/mL. Moreover, in [11], the MRT last was determined as 3.4 ± 0.2 h. In data set [11], the Tmax came out at 1.7 ± 0.6 h. The compound also showed a half-life in data set [11] of 4.3 ± 2 h.

Regarding `Cc1ccc(CNc2cc(C)nn3c(-c4ccc5c(c4)c(C)nn5C)c(C)nc23)cn1` [Example 2, 3-(1,3-dimethyl-1H-indazol-5-yl)-2,6-dimethyl-N-((6-methylpyridin-3-yl)methyl)imidazo[1,2-b]pyridazin-8-amine], the IC50 in data set [1] is below 1000 nM; in data set [2], below 100 nM; in data set [3], below 100 nM; in data set [14], below 10 nM; in [5] it was below 100 nM; in data set [15], 1700 nM. The IC50 in [16] is above 1000 nM; in data set [6], below 10 nM; in [8] it was below 100 nM; in data set [9], below 100 nM; in data set [17], 200 nM; in data set [18], 1.5 nM. The IC50 in data set [12] and in data set [13] was below 100 nM each time. Further, in data set [11], the AUC(0-inf) was 64100 ± 7000 ng·h/mL. This compound yielded an AUC(0-t) in [11] of 58600 ± 9900 ng·h/mL. Also, the AUCextrap in [11] is 8.8 ± 7.1%. Moreover, in [11], the Cmax was found to be 4800 ± 800 ng/mL. Moreover, the MRT last in data set [11] stood at 6.9 ± 0.8 h. Moreover, in [11], the time to peak (Tmax) worked out at 1.7 ± 0.6 h. Further, the half-life in data set [11] is 6.6 ± 2.4 h.

One may read the inhibition as the relative decrease from the control value, in per cent. With `Cc1cc(NCc2ccc(S(C)(=O)=O)cc2)c2nc(C)c(-c3ccc4c(c3)c(C)nn4C)n2n1` [Example 7, 3-(1,3-dimethyl-1H-indazol-5-yl)-2,6-dimethyl-N-(4-(methyl-sulfonyl)benzyl)imidazo[1,2-b]pyridazin-8-amine], the IC50 was below 1 nM in [1]; below 10 nM in [2]; below 10 nM in data set [3]; below 100 nM in data set [14]; below 1 nM in data set [5]; below 1 nM in data set [6]. Moreover, the IC50 in data set [9] is below 10 nM; in data set [12], below 10 nM; in [13], below 100 nM. The values for the fraction unbound at 4 h, 5 μM in data set [4] (human) and in data set [4] (rat) were 0.005 and 0.006, respectively. Moreover, the inhibition at 0.1 µM amounted to 85% in data set [19] (0 h, substance added at inoculation, read-out: Inhibition of cytopathogenic effect, 0 h); 95% in data set [19] (1 h, substance added one hour pre inoculation, read-out: Inhibition of cytopathogenic effect, −1 h); 100% in data set [19] (substance added 2 hours past inoculation, read-out: Inhibition of cytopathogenic effect, +2 h); 91% in data set [19] (substance added 6 hours past inoculation, read-out: Inhibition of cytopathogenic effect, +6 h); 2% in data set [19] (substance added 24 hours past inoculation, read-out: Inhibition of cytopathogenic effect, +24 h). Further, in [7], the “Remaining after 1 h, HLM” value was determined as 75%. This compound also showed a half-life at 5 μM in [7] above 2 h. The “Remaining after 1 h, RLM” value in data set [10] is 94%.
